From PubChem BioAssay (NCI)
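Cells were grown in 96-well plates and exposed to each compound for 48 hours at five concentrations; endpoints were interpolated linearly between bracketing concentrations, or set to the highest concentration if not reached. GI50 is the concentration that inhibits growth by half. Definition used: TGI = concentration required for complete inhibition of growth.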

Tests used:
Test in all cases: NCI-60 cell line screen, 48 h; in the data active means GI50 below about 0.43 µM; inactive means the rest
[1] = tested on: OVCAR-4 ovarian
[2] = tested on: HS 578T breast
[3] = tested on: A549 NSCLC
[4] = tested on: MOLT-4 leukemia
[5] = tested on: CAKI-1 renal
[6] = tested on: 786-0 renal
[7] = tested on: NCI-H226 lung
[8] = tested on: HL-60(TB) leukemia
[9] = tested on: TK-10 renal
[10] = tested on: OVCAR-8 ovarian
[11] = tested on: UACC-257 melanoma
[12] = tested on: SNB-75 CNS
[13] = tested on: UACC-62 melanoma
[14] = tested on: SK-MEL-2 melanoma
[15] = tested on: SW-620 colon
[16] = tested on: SK-MEL-28 melanoma
[17] = tested on: SF-268 CNS
[18] = tested on: UO-31 renal
[19] = tested on: HOP-92 NSCLC
[20] = tested on: BT-549 breast
[21] = tested on: RPMI-8226 leukemia
[22] = tested on: NCI-H23 lung
[23] = tested on: COLO 205 colon
[24] = tested on: KM12 colon
[25] = tested on: LOX IMVI melanoma
[26] = tested on: HCT-116 colon
[27] = tested on: SK-MEL-5 melanoma
[28] = tested on: IGROV1 ovarian
[29] = tested on: HT29 colon
[30] = tested on: MCF7 breast
[31] = tested on: U251 CNS
[32] = tested on: DU-145 prostate
[33] = tested on: SR leukemia
[34] = tested on: NCI-H460 lung
[35] = tested on: SK-OV-3 ovarian
[36] = tested on: SNB-19 CNS
[37] = tested on: SF-295 CNS
[38] = tested on: MALME-3M melanoma
[39] = tested on: A498 renal
[40] = tested on: T-47D breast
[41] = tested on: OVCAR-3 ovarian
[42] = tested on: OVCAR-5 ovarian
[43] = tested on: MDA-MB-231 breast
[44] = tested on: PC-3 prostate
[45] = tested on: ACHN renal
[46] = tested on: NCI/ADR-RES ovarian
[47] = tested on: SN12C renal
[48] = tested on: RXF 393 renal
[49] = tested on: NCI-H522 lung
[50] = tested on: M14 melanoma
[51] = tested on: HCT-15 colon
[52] = tested on: CCRF-CEM leukemia
[53] = tested on: MDA-MB-435
[54] = tested on: HOP-62 NSCLC
[55] = tested on: EKVX NSCLC
[56] = tested on: HCC-2998 colon
[57] = tested on: K-562 leukemia
[58] = tested on: SF-539 CNS

c1cc[n+](C2c3ccccc3C([n+]3ccccc3)c3ccccc32)cc1 (stereo unspecified)
> 100 µM: TGI [1] | TGI [3] | TGI [4] | TGI [5] | TGI [6] | TGI [7] | TGI [8] | TGI [9] | TGI [10] | TGI [15] | TGI [18] | TGI [25] | TGI [26] | TGI [30] | TGI [33] | TGI [35] | TGI [42] | TGI [43] | TGI [44] | TGI [45] | TGI [46] | TGI [50] | TGI [51] | TGI [52] | TGI [55] | TGI [57]
43.8 µM: TGI [32]
27 µM: TGI [2]
> 82.8 µM: TGI [28]
> 77 µM: TGI [41]
30.7 µM: TGI [49]
37 µM: TGI [11]
50.9 µM: TGI [19]
> 44.5 µM: TGI [16]
18.6 µM: TGI [38]
25.4 µM: TGI [47]
17.3 µM: TGI [58]
86.2 µM: TGI [48]
> 52.4 µM: TGI [22]
> 86.4 µM: TGI [21]
73.7 µM: TGI [39]
> 89.4 µM: TGI [34]
14.6 µM: TGI [20]
28.7 µM: TGI [13]
22.2 µM: TGI [23]
> 66.4 µM: TGI [14]
71.1 µM: TGI [54]
> 90.8 µM: TGI [31]
50.1 µM: TGI [24]
23.2 µM: TGI [27]
79.6 µM: TGI [40]
inactive: GI50 [1] 18.4 µM | GI50 [2] 4.4 µM | GI50 [3] 26.6 µM | GI50 [4] 25.8 µM | GI50 [5] > 100 µM | GI50 [6] 15.9 µM | GI50 [7] 17.9 µM | GI50 [8] 22.6 µM | GI50 [9] 19.2 µM | GI50 [10] 6.23 µM | GI50 [11] 5.93 µM | GI50 [12] 1.13 µM | GI50 [13] 11.3 µM | GI50 [14] 15 µM | GI50 [15] 8.52 µM | GI50 [16] 5.92 µM | GI50 [17] 2.13 µM | GI50 [18] > 100 µM | GI50 [19] 4.45 µM | GI50 [20] 3.64 µM | GI50 [21] 6.96 µM | GI50 [22] 5.11 µM | GI50 [23] 4.24 µM | GI50 [24] 6.43 µM | GI50 [25] 15.8 µM | GI50 [26] 10.7 µM | GI50 [27] 7.91 µM | GI50 [28] 1.96 µM | GI50 [29] 12.6 µM | GI50 [30] 11.9 µM | GI50 [31] 3.14 µM | GI50 [32] 14.2 µM | GI50 [33] 7.64 µM | GI50 [34] 21.1 µM | GI50 [35] 52.5 µM | GI50 [36] 4.13 µM | GI50 [37] 4.2 µM | GI50 [38] 3.9 µM | GI50 [39] 15.8 µM | GI50 [40] 10.1 µM | GI50 [41] 14.1 µM | GI50 [42] 26.7 µM | GI50 [43] 21.6 µM | GI50 [44] 4.8 µM | GI50 [45] > 100 µM | GI50 [46] > 100 µM | GI50 [47] 3.39 µM | GI50 [48] 19.5 µM | GI50 [49] 4.67 µM | GI50 [50] 41 µM | GI50 [51] > 100 µM | GI50 [52] 10.7 µM | GI50 [53] 5.89 µM | GI50 [54] 5.77 µM | GI50 [55] 3.39 µM | GI50 [56] 10.3 µM | GI50 [57] 12 µM | GI50 [58] 2.59 µM
3.15 µM: TGI [12]
11.8 µM: TGI [17]
31.8 µM: TGI [56]
42.8 µM: TGI [36]
> 75.5 µM: TGI [29]
23 µM: TGI [53]
80.9 µM: TGI [37]
